The values below come from PubChem BioAssay (NCI).

Values joined by “and” are separate entries in the source; they are usually repeats but may differ in a detail not shown here. Equal entries are not always repeated.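 Briefly, cells in 96-well plates were exposed to five compound concentrations for 48 h, and endpoints were estimated by linear interpolation. GI50 marks 50% less growth. TGI: concentration producing complete growth inhibition.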

Test systems include A498 renal; K-562 leukemia; HOP-92 NSCLC; NCI-H23 lung; BT-549 breast; HCT-116 colon; 786-0 renal; MDA-MB-435; SNB-75 CNS; UO-31 renal.
Test in all cases: NCI tumour cell line growth inhibition, 48 h

As for `CNCCNc1c2c(c(NCCNC)c3[nH]ccc13)C(=O)c1ccccc1C2=O`, the GI50 with A498 renal is 2.14 µM; with K-562 leukemia it was 0.126 µM; in the test on HOP-92 NSCLC it was 0.418 µM; with NCI-H23 lung, 0.197 µM; with BT-549 breast, 4 µM; in the test on HCT-116 colon it was 0.0269 µM. Moreover, the GI50 in the test on 786-0 renal was 0.0646 µM; with MDA-MB-435 it was 0.255 µM; in the test on SNB-75 CNS, 3.5 µM; with UO-31 renal, 0.201 µM. Moreover, the TGI was 4.27 µM in the test with A498 renal; greater than 100 µM in the test with K-562 leukemia; 2.37 µM with HOP-92 NSCLC; 0.558 µM in the test on NCI-H23 lung; 8.21 µM with BT-549 breast; 0.498 µM in the test with HCT-116 colon. The TGI in the test with 786-0 renal was 0.821 µM; in the test on MDA-MB-435, 1.47 µM; with SNB-75 CNS it was 8.86 µM; with UO-31 renal, 0.818 µM.

As for `O=C(O)C1C(C(=O)O)C23CC2(C(=O)O)C2(C(=O)O)CCC3=C3CCCC312` (centres undefined), the TGI in the test on A498 renal was found to be 62.6 µM; in the test on K-562 leukemia it was 95.5 µM; in the test on HOP-92 NSCLC, 36.5 µM; with NCI-H23 lung it was 36.4 µM; with BT-549 breast, 69.9 µM; with HCT-116 colon, 66.7 µM. The TGI with 786-0 renal is greater than 100 µM; in the test with MDA-MB-435, 49.8 µM; with SNB-75 CNS, 93.5 µM; with UO-31 renal it was 33.2 µM.

Consider `CN(C)CCCN1c2ccccc2C(C)(C)c2ccccc21`, for which the TGI in the test with A498 renal was found to be 23 µM; in the test with K-562 leukemia, 27.1 µM; in the test with HOP-92 NSCLC, 31.6 µM; with NCI-H23 lung, 30.4 µM; with BT-549 breast it was 28.1 µM; in the test with HCT-116 colon it was 27.9 µM. The TGI with 786-0 renal came out at 27.7 µM; in the test on MDA-MB-435, 27.4 µM; in the test with SNB-75 CNS it was 24.4 µM; in the test on UO-31 renal, 27.4 µM.

For the compound `COc1ccc(-n2cc(-c3cc(OC)c(OC)c(OC)c3)nc2SCc2ccccc2)cc1OC`, the GI50 in the test with A498 renal is greater than 100 µM; in the test on K-562 leukemia, 54.7 µM; with HOP-92 NSCLC, 6.45 µM; with NCI-H23 lung, greater than 100 µM; in the test on BT-549 breast it was greater than 82.7 µM; with HCT-116 colon it was 49.1 µM. Moreover, the GI50 is greater than 100 µM in the test with 786-0 renal, greater than 100 µM in the test on MDA-MB-435, 34.4 µM in the test with SNB-75 CNS and 17.7 µM in the test on UO-31 renal. The TGI was greater than 100 µM in the test with A498 renal; greater than 100 µM in the test on K-562 leukemia; greater than 29.5 µM in the test on HOP-92 NSCLC; greater than 100 µM with NCI-H23 lung; greater than 100 µM in the test with BT-549 breast; greater than 100 µM in the test with HCT-116 colon. In addition, the TGI with 786-0 renal, with MDA-MB-435, with SNB-75 CNS and with UO-31 renal was greater than 100 µM each time.

For `CCN(CC)CCn1c2ccccc2c(=O)c2c(O)ccc(O)c21`, the TGI in the test with A498 renal was greater than 100 µM; with K-562 leukemia, 68.5 µM; in the test with HOP-92 NSCLC it was 39.9 µM; with NCI-H23 lung it was 62.2 µM; with BT-549 breast it was 44.7 µM; with HCT-116 colon, 58.6 µM. The TGI in the test with 786-0 renal turned out to be 53.8 µM; with MDA-MB-435, 33.4 µM; in the test on SNB-75 CNS, 49.5 µM; in the test on UO-31 renal, 63.8 µM.

Regarding `OC(CNCC1CCCO1)Cn1c2ccc(Cl)cc2c2cc(Cl)ccc21` (centres undefined), the GI50 in the test with A498 renal was 1.06 µM; in the test with K-562 leukemia, 2.15 µM; in the test on HOP-92 NSCLC it was 2.15 µM; in the test with NCI-H23 lung, 1.92 µM; with BT-549 breast it was 5.98 µM; in the test with HCT-116 colon it was 1.73 µM. The GI50 in the test on 786-0 renal is 1.59 µM; in the test on MDA-MB-435, 1.66 µM; in the test with SNB-75 CNS, 1.39 µM; with UO-31 renal, 1.61 µM. In addition, the TGI with A498 renal came out at 8.83 µM; in the test with K-562 leukemia it was 4.76 µM; in the test on HOP-92 NSCLC, 6.24 µM; in the test with NCI-H23 lung, 3.61 µM; with BT-549 breast, 27.1 µM; in the test on HCT-116 colon, 3.12 µM. Also, the TGI came out at 3.08 µM in the test with 786-0 renal, 3.02 µM with MDA-MB-435, 2.87 µM with SNB-75 CNS and 3.15 µM with UO-31 renal.

`CCCCCCCCCCCCOC1C(C(COC2OC(C3COC(C)(C)O3)C3OC(C)(C)OC23)NC(=O)NS(=O)(=O)c2ccccc2)OC2OC(C)(C)OC21` (centres undefined): the GI50 in the test on A498 renal is 3.87 µM; in the test with K-562 leukemia, 2.57 µM; in the test on HOP-92 NSCLC, 2.39 µM; in the test on NCI-H23 lung it was 4.34 µM; in the test with BT-549 breast, 3.61 µM; in the test on HCT-116 colon, 4.05 µM. The GI50 is 3.51 µM in the test on 786-0 renal, 4.6 µM in the test with MDA-MB-435, 11.4 µM in the test on SNB-75 CNS and 5.16 µM in the test with UO-31 renal. In addition, the TGI with A498 renal was found to be 11.9 µM; in the test on K-562 leukemia, 16.1 µM; in the test with HOP-92 NSCLC it was 8.52 µM; with NCI-H23 lung, 19.3 µM; in the test with BT-549 breast, 13.1 µM; with HCT-116 colon it was 16.3 µM. The TGI with 786-0 renal stood at 11.6 µM; in the test with MDA-MB-435, 21.5 µM; in the test with SNB-75 CNS, 31.6 µM; in the test with UO-31 renal, 19.7 µM.

In the case of `O=c1oc2cc(N=Cc3ccc4c(c3)OCO4)ccc2c2ccccc12`, the TGI in the test on A498 renal, in the test on K-562 leukemia, in the test on HOP-92 NSCLC, in the test with NCI-H23 lung, with BT-549 breast and in the test with HCT-116 colon was greater than 100 µM throughout. For the same compound, the TGI is greater than 100 µM in the test with 786-0 renal, greater than 100 µM with MDA-MB-435, 39.7 µM with SNB-75 CNS and greater than 100 µM with UO-31 renal.

Consider `Clc1ccc2nnnn2n1`, for which the GI50 is 15.1 µM with A498 renal; 2.77 µM in the test with K-562 leukemia; 4.15 µM with HOP-92 NSCLC; 5.98 µM in the test with NCI-H23 lung; 2.87 µM in the test with BT-549 breast; 2.06 µM in the test on HCT-116 colon. In addition, the GI50 is 3.73 µM in the test on 786-0 renal, 2.13 µM in the test with MDA-MB-435, 4.07 µM in the test with SNB-75 CNS and 3.52 µM in the test on UO-31 renal. Moreover, the TGI in the test with A498 renal was found to be 54.9 µM; with K-562 leukemia, 17.4 µM; in the test on HOP-92 NSCLC it was 27 µM; in the test with NCI-H23 lung, 35.4 µM; in the test on BT-549 breast, 9.92 µM; in the test on HCT-116 colon it was 4.46 µM. For the same compound, the TGI was greater than 100 µM in the test on 786-0 renal, 5.39 µM in the test on MDA-MB-435, greater than 100 µM in the test on SNB-75 CNS and greater than 100 µM with UO-31 renal.

As to `CCOC(=O)/C(=C\c1ccc(C#N)cc1)C(C)=O`, the TGI in the test on A498 renal was 30 µM; in the test on K-562 leukemia, greater than 100 µM; with HOP-92 NSCLC it was 50.6 µM; in the test on NCI-H23 lung, 36.7 µM; in the test on BT-549 breast, 37 µM; in the test with HCT-116 colon, 57.3 µM. The TGI came out at 32.9 µM in the test on 786-0 renal, 98.3 µM with MDA-MB-435, 45.5 µM with SNB-75 CNS and 28 µM with UO-31 renal.

`COc1cc(Cl)cc(-c2nn(-c3cccc(NC(=O)Nc4cc(C(F)(F)F)cc(C(F)(F)F)c4)c3)cc2-c2ccncc2)c1`: the GI50 in the test with A498 renal is 0.629 µM; with K-562 leukemia, 0.339 µM; with HOP-92 NSCLC, 0.228 µM; with NCI-H23 lung, 0.332 µM; with BT-549 breast, 2.34 µM; in the test on HCT-116 colon, 0.356 µM. Also, the GI50 was 0.821 µM with 786-0 renal, 0.684 µM with MDA-MB-435, 1.18 µM with SNB-75 CNS and 0.28 µM in the test on UO-31 renal. Further, the TGI is 4.81 µM in the test with A498 renal; 8.09 µM in the test on K-562 leukemia; 0.783 µM with HOP-92 NSCLC; 2.01 µM with NCI-H23 lung; 6.78 µM in the test on BT-549 breast; 1.46 µM in the test with HCT-116 colon. Also, the TGI came out at 2.64 µM in the test on 786-0 renal, 2.62 µM in the test with MDA-MB-435, 6.86 µM in the test on SNB-75 CNS and 1.92 µM with UO-31 renal.

Consider `CC1(O)CC(c2nc(-c3ccc4ccc(-c5ccccc5)nc4c3)c3c(N)nccn23)C1` (centres undefined), for which the GI50 was 3.32 µM and 4.55 µM with A498 renal; 0.0272 µM and 0.0625 µM in the test with HOP-92 NSCLC; 8.83 µM and 5.03 µM with NCI-H23 lung; 6.92 µM and 5.87 µM in the test with BT-549 breast; 7.32 µM and 5.29 µM with HCT-116 colon; 15 µM and > 10 µM in the test with 786-0 renal. Moreover, the GI50 in the test on MDA-MB-435 is 4.53 µM and 3.69 µM; in the test with SNB-75 CNS, 4.62 µM and 5.57 µM; in the test on UO-31 renal, 3.6 µM and 1.65 µM. For the same compound, the TGI with A498 renal is 12.8 µM and > 10 µM; with K-562 leukemia, greater than 100 µM; in the test with HOP-92 NSCLC, 1.15 µM and 1.43 µM; in the test with NCI-H23 lung, greater than 80.8 µM; with BT-549 breast, 24.3 µM and > 10 µM; with HCT-116 colon, 26.7 µM and > 10 µM. Besides, the TGI in the test on 786-0 renal was 53.7 µM and > 10 µM; in the test with MDA-MB-435 it was 27.3 µM and > 10 µM; in the test with SNB-75 CNS, 43.2 µM and > 10 µM; in the test with UO-31 renal, greater than 76.3 µM.

For `COc1ccccc1N1CCN(CCc2c[nH]c3cc4c(cc23)OCO4)CC1`, the GI50 in the test on A498 renal was 16.6 µM; with K-562 leukemia, 24.4 µM; in the test with HOP-92 NSCLC, 14.3 µM; with NCI-H23 lung, 23.4 µM; with BT-549 breast it was 23.3 µM; with HCT-116 colon, 10.9 µM. Further, the GI50 in the test with 786-0 renal is 32.4 µM; with MDA-MB-435 it was 14 µM; in the test on SNB-75 CNS it was 25 µM; with UO-31 renal, 20.3 µM. Moreover, the TGI in the test with A498 renal is 83 µM; with K-562 leukemia, greater than 100 µM; in the test on HOP-92 NSCLC, greater than 100 µM; in the test on NCI-H23 lung, greater than 100 µM; with BT-549 breast, greater than 100 µM; with HCT-116 colon it was greater than 100 µM. Besides, the TGI in the test on 786-0 renal was greater than 100 µM; with MDA-MB-435, 52.3 µM; with SNB-75 CNS, greater than 100 µM; in the test with UO-31 renal, greater than 100 µM.
